In ChEMBL document CHEMBL5385947, “Tepuazines A-E: Phenazine Glycosides from a Venezuelan Quartz-Rich (Tepui) Cave Soil-Derived Streptomyces virginiae CMB-CA091” (J Nat Prod, 2024):

Columns and labels:
NCI-H460 = assay: Cytotoxicity against human NCI-H460 cells assessed as inhibition of cell growth; format: functional, cell-based
Candida albicans = assay: Antifungal activity against Candida albicans ATCC 10231 assessed as inhibition of bacterial growth; format: functional, organism-based
Bacillus subtilis = assay: Antibacterial activity against Bacillus subtilis ATCC 6633 assessed as inhibition of bacterial growth; format: functional, organism-based
SW-620 = assay: Cytotoxicity against human SW620 cells assessed as inhibition of cell growth; format: functional, cell-based
Staphylococcus aureus = assay: Antibacterial activity against Staphylococcus aureus ATCC 25923 assessed as inhibition of bacterial growth; format: functional, organism-based
Escherichia coli = assay: Antibacterial activity against Escherichia coli ATCC 11775 assessed as inhibition of bacterial growth; format: functional, organism-based

Measured: IC50

C[C@@H]1O[C@@H](Oc2cccc3nc4c(C(=O)O)cc5c(c4nc23)[C@H]2Cc3nc4cccc(O)c4nc3[C@@H](O5)[C@H]2O)[C@H](O)[C@H](O)[C@H]1O
> 30 µM: all assays above

C[C@@H]1O[C@@H](Oc2cccc3nc4c(C(=O)O)cc5c(c4nc23)[C@@H]2Cc3nc4cccc(O)c4nc3[C@@](O)(C2)O5)[C@H](O)[C@H](O)[C@H]1O
> 30 µM: all assays above

C[C@H]1O[C@H](Oc2cccc3nc4ccccc4nc23)[C@@H](O)[C@@H](O)[C@@H]1O
> 30 µM: all assays above

CN(c1ccc(C(=O)O)cc1)c1cccc2nc3c(O)cccc3nc12 [IZUMIPHENAZINE C]
> 30 µM: all assays above

C[C@@H]1O[C@@H](Oc2cc(C(=O)O)c3nc4cccc(O)c4nc3c2)[C@H](O)[C@H](O)[C@H]1O
> 30 µM: all assays above

C[C@H]1O[C@H](Oc2cccc3nc4c(N(C)c5ccc(C(=O)O)cc5)cccc4nc23)[C@@H](O)[C@@H](O)[C@@H]1O
> 30 µM: all assays above

O=C(O)c1cc2c(c3nc4c(O)cccc4nc13)[C@@H]1Cc3nc4cccc(O)c4nc3[C@@](O)(C1)O2
> 30 µM: all assays above

O=C(O)c1cc2c(c3nc4c(O)cccc4nc13)[C@H]1Cc3nc4cccc(O)c4nc3[C@@H](O2)[C@H]1O
> 30 µM: all assays above
